The values that follow are results of earlier work, collected in EP2566462B1, “IMMEDIATE RELEASE FORMULATIONS AND DOSAGE FORMS OF GAMMA-HYDROXYBUTYRATE” (Jazz Pharmaceuticals Inc., priority 2010, dated 2011).

Series [1] deals with patients with hyperkinetic movement disorders including ethanol responsive myoclonus and essential tremor. The note with it: open label, five patients.
For series [2] the following is noted: in man, given orally.

Consider `O=C([O-])CCCO.[Na+]` [sodium oxybate, Sodium gamma-hydroxybutyrate], for which, in series [1], the “blinded ratings of ethanol responsive myoclonus and tremor” value is recorded as “dose-dependent improvements”; the tolerability result is recorded as “tolerated at doses that provided clinical benefit”. Also, the plasma half-life result in series [2] is “about 45 minutes”.
